Data reported in patent publication US20250032523A1, “ACTIVE HUMAN MILK OLIGOSACCHARIDE PREPARATION WITH ALLERGY-ALLEVIATING FUNCTION, AND USE THEREOF” (Zhejiang Gongshang University, priority 2023, published 2025).
“Also recorded” adds a separate entry of the source.

What was measured:
[1] = tested on: purified T cells from mouse spleen; assay: Immune cell allergy model: RT-qPCR of allergy-associated genes in OVA-stimulated purified T cells from mouse spleen; assay type: cell-based; settings: HMO preparation at final concentration 100 μg/mL, versus sensitization group
Experimental: (§1) In a fourth aspect, the present disclosure also provides a use of the active HMO preparation in construction of an immune cell allergy model, where the construction method of the immune cell allergy model includes the following steps: • (1) taking a cryopreserved mouse bone marrow-derived dendritic cell (DC) line DC2.4, and subjecting the cryopreserved mouse bone marrow-derived DC line DC2.4 to recovery, activation, and subculture in an incubator (37° C. and 5% CO2); • (2) sacrificing a Balb/c female mouse through cervical dislocation, collecting a spleen in a clean bench, subjecting the spleen to grinding, red blood cell lysis, washing, and re-suspension with a cell culture medium to obtain a mouse spleen single-cell suspension, and purifying T cells from the spleen single-cell suspension through magnetic bead separation; • (3) inoculating the cells in a 12-well cell culture plate, dividing the cells into a control group, a sensitization group, and an intervention group with 3 biological replicates for each group, and culturing the cells in an incubator (37° C. and 5% CO2); and • (4) extracting total RNA from cells, and detecting an RNA concentration with a nucleoprotein concentration meter for follow-up experiments; and reverse-transcribing the extracted RNA immediately into cDNA, conducting quantitative reverse transcription polymerase chain reaction (RT-qPCR), and with β-actin as an internal reference gene, calculating a relative expression level of a target gene by a 2^−ΔΔCt method.
(§2) In the present disclosure, an effect of the preparation is verified. When the immune cell allergy model is constructed, a sensitinogen used is ovalbumin (OVA), and relative expression levels of genes for a pro-inflammatory factor OX40L, an anti-inflammatory factor IL-10, a Th2-type cytokine IL-5, a Th1-type associated cytokine T-bet, a Th2-type cytokine IL-4, and a Th1-type associated cytokine IFN-γ are calculated.
(2) An SPF grade Balb/c female mouse was sacrificed through cervical dislocation and dissected under sterile conditions, a spleen tissue was collected and subjected to grinding, red blood cell lysis, washing, and re-suspension with an RPMI-1640 medium to prepare a mouse spleen single-cell suspension, and T cells in the mouse spleen were extracted through magnetic bead separation.
(3) The cells were divided into 4 groups with 3 replicates for each group, including a control group, a sensitization group, an HMO preparation intervention group 1 (Example 1), and an HMO preparation intervention group 2 (Example 2). […]
(§3) (4) Total RNA was extracted from cells and reverse-transcribed into cDNA, and an expression level of an allergy-associated gene in the cells was detected by RT-qPCR. […]

[2] = tested on: mouse bone marrow-derived DC line DC2.4; assay: Immune cell allergy model: RT-qPCR of allergy-associated genes in OVA-stimulated DC2.4 cells; assay type: cell-based; settings: HMO preparation at final concentration 100 μg/mL, versus sensitization group
Experimental: as §1, §2
(1) A cryopreserved mouse bone marrow-derived DC line DC2.4 was taken and subjected to recovery, activation, and subculture, and cells of generation 4 to 6 with a strong activity were selected for the experiment.
(3) The cells were divided into 4 groups with 3 replicates for each group, including a control group, a sensitization group, an HMO preparation intervention group 1 (Example 1), and an HMO preparation intervention group 2 (Example 2). In the HMO preparation intervention groups, an HMO preparation was added at a final concentration of 100 μg/mL to cells, and the cells were cultured in an incubator (37° C. and 5% CO2).
as §3

food allergy mice = assay: Food allergy mice (OVA sensitization), intragastric HMO preparation, RT-qPCR of spleen tissue; assay type: in vivo, mouse; settings: OVA-sensitized mice, intragastric administration, versus sensitized mice
Excerpt: The anti-allergy active HMO preparations of LNFP-I and 2′-FL were intragastrically administered to food allergy mice to alleviate food allergy symptoms.
(1) Mice were intragastrically administered with OVA for sensitization, and then intervened with an HMO preparation intervention group 1 (Example 1) and an HMO preparation intervention group 2 (Example 2), respectively.
(2) The mice were sacrificed through cervical dislocation and dissected under sterile conditions, and spleen tissues were collected and stored in liquid nitrogen.
(3) Total RNA was extracted from each mouse spleen tissue and reverse-transcribed into cDNA, and an expression level of an allergy-associated gene was detected by RT-qPCR.
The anti-allergy active HMO preparations were intragastrically administered in a mass ratio of 1:3 to food allergy mice to alleviate food allergy symptoms.
(1) Mice were intragastrically administered with OVA for sensitization, and then intervened with the anti-allergy active HMO preparation prepared in Example 5 at a mass ratio of 1:3.

Substance | expression level of the gene for Th1-type associated cytokine T-bet (relative mRNA, RT-qPCR) [1] | expression level of the gene for Th2-type cytokine IL-5 (relative mRNA, RT-qPCR) [1] | expression level of the gene for anti-inflammatory factor IL-10 (relative mRNA, RT-qPCR) [2] | expression level of the gene for pro-inflammatory factor OX40L (relative mRNA, RT-qPCR) [2] | expression level of the gene for Th1-type associated cytokine IFN-γ in spleen (relative mRNA, RT-qPCR) (food allergy mice) | expression level of the gene for Th2-type cytokine IL-4 in spleen (relative mRNA, RT-qPCR) (food allergy mice)
2′-fucosyllactose [intervention group 2] | significantly stimulate an expression level of the gene for T-bet to increase | decreases to some degree | significantly stimulate an expression level of a gene for IL-10 to further increase | can be reduced | greatly stimulate an expression level of the gene for IFN-γ to further increase | decrease significantly
lacto-N-fucopentaose I [intervention group 1] | significantly stimulate an expression level of the gene for T-bet to increase; also recorded: increases more significantly than an expression level of the gene for T-bet in the intervention group 2 | decreases slightly | significantly stimulate an expression level of a gene for IL-10 to further increase; also recorded: increases more than an expression level of the gene for IL-10 in the intervention group 2 | can be reduced | significantly stimulate an expression level of the gene for IFN-γ to further increase | does not change significantly
